# Data from patent US20210363254A1, “PHARMACEUTICAL COMBINATIONS” (Novartis AG, priority 2018, published 2021).
# Like-named read-outs stand apart in the source and are kept apart here.
compound,measurement,setting,value
"COc1ncc(-c2nc3c(n2C(C)C)[C@H](c2ccc(Cl)cc2)N(c2cc(Cl)cn(C)c2=O)C3=O)c(OC)n1 [HDM201, (S)-5-(5-Chloro-1-methyl-2-oxo-1,2-dihydro-pyridin-3-yl)-6-(4-chloro-phenyl)-2-(2,4-dimethoxy-pyrimidin-5-yl)-1-isopropyl-5,6-dihydro-1H-pyrrolo[3,4-d]imidazol-4-one]","Abdominal Pain, All Grades","1B 120 mg, N=9",1 (11.1) n (%)
same,"Abdominal Pain, Grade 3/4","1B 120 mg, N=9",0 n (%)
same,"Alanine Aminotransferase Increased, All Grades","1B 120 mg, N=9",0 n (%)
same,"Alanine Aminotransferase Increased, Grade 3/4","1B 120 mg, N=9",0 n (%)
same,"Alopecia, All Grades","1B 120 mg, N=9",1 (11.1) n (%)
same,"Alopecia, Grade 3/4","1B 120 mg, N=9",0 n (%)
same,"Amylase Increased, All Grades","1B 120 mg, N=9",0 n (%)
same,"Amylase Increased, Grade 3/4","1B 120 mg, N=9",0 n (%)
same,"Anaemia, All Grades","1B 120 mg, N=9",2 (22.2) n (%)
same,"Anaemia, Grade 3/4","1B 120 mg, N=9",0 n (%)
same,"Asthenia, All Grades","1B 120 mg, N=9",1 (11.1) n (%)
same,"Asthenia, Grade 3/4","1B 120 mg, N=9",0 n (%)
same,"Blood Bilirubin Increased, All Grades","1B 120 mg, N=9",0 n (%)
same,"Blood Bilirubin Increased, Grade 3/4","1B 120 mg, N=9",0 n (%)
same,"Blood Creatine Phosphokinase Increased, All Grades","1B 120 mg, N=9",2 (22.2) n (%)
same,"Blood Creatine Phosphokinase Increased, Grade 3/4","1B 120 mg, N=9",1 (11.1) n (%)
same,"Blood Creatinine Increased, All Grades","1B 120 mg, N=9",1 (11.1) n (%)
same,"Blood Creatinine Increased, Grade 3/4","1B 120 mg, N=9",0 n (%)
same,"Decreased Appetite, All Grades","1B 120 mg, N=9",1 (11.1) n (%)
same,"Decreased Appetite, Grade 3/4","1B 120 mg, N=9",0 n (%)
same,"Dehydration, All Grades","1B 120 mg, N=9",1 (11.1) n (%)
same,"Dehydration, Grade 3/4","1B 120 mg, N=9",0 n (%)
same,"Diarrhoea, All Grades","1B 120 mg, N=9",3 (33.3) n (%)
same,"Diarrhoea, Grade 3/4","1B 120 mg, N=9",0 n (%)
same,"Dry Skin, All Grades","1B 120 mg, N=9",1 (11.1) n (%)
same,"Dry Skin, Grade 3/4","1B 120 mg, N=9",0 n (%)
same,"Dysgeusia, All Grades","1B 120 mg, N=9",1 (11.1) n (%)
same,"Dysgeusia, Grade 3/4","1B 120 mg, N=9",0 n (%)
same,"Eye Pain, All Grades","1B 120 mg, N=9",0 n (%)
same,"Eye Pain, Grade 3/4","1B 120 mg, N=9",0 n (%)
same,"Fatigue, All Grades","1B 120 mg, N=9",1 (11.1) n (%)
same,"Fatigue, Grade 3/4","1B 120 mg, N=9",0 n (%)
same,"Folliculitis, All Grades","1B 120 mg, N=9",0 n (%)
same,"Folliculitis, Grade 3/4","1B 120 mg, N=9",0 n (%)
same,"Gamma-Glutamyltransferase Increased, All Grades","1B 120 mg, N=9",0 n (%)
same,"Gamma-Glutamyltransferase Increased, Grade 3/4","1B 120 mg, N=9",0 n (%)
same,"Headache, All Grades","1B 120 mg, N=9",0 n (%)
same,"Headache, Grade 3/4","1B 120 mg, N=9",0 n (%)
same,"Hyperkalaemia, All Grades","1B 120 mg, N=9",1 (11.1) n (%)
same,"Hyperkalaemia, Grade 3/4","1B 120 mg, N=9",0 n (%)
same,"Hypocalcaemia, All Grades","1B 120 mg, N=9",1 (11.1) n (%)
same,"Hypocalcaemia, Grade 3/4","1B 120 mg, N=9",0 n (%)
same,"Influenza Like Illness, All Grades","1B 120 mg, N=9",0 n (%)
same,"Influenza Like Illness, Grade 3/4","1B 120 mg, N=9",0 n (%)
same,"Lethargy, All Grades","1B 120 mg, N=9",0 n (%)
same,"Lethargy, Grade 3/4","1B 120 mg, N=9",0 n (%)
same,"Leukopenia, All Grades","1B 120 mg, N=9",1 (11.1) n (%)
same,"Leukopenia, Grade 3/4","1B 120 mg, N=9",0 n (%)
same,"Lipase Increased, All Grades","1B 120 mg, N=9",1 (11.1) n (%)
same,"Lipase Increased, Grade 3/4","1B 120 mg, N=9",0 n (%)
same,"Lymphopenia, All Grades","1B 120 mg, N=9",0 n (%)
same,"Lymphopenia, Grade 3/4","1B 120 mg, N=9",0 n (%)
same,"Monocytosis, All Grades","1B 120 mg, N=9",1 (11.1) n (%)
same,"Monocytosis, Grade 3/4","1B 120 mg, N=9",0 n (%)
same,"Musculoskeletal Pain, All Grades","1B 120 mg, N=9",1 (11.1) n (%)
same,"Musculoskeletal Pain, Grade 3/4","1B 120 mg, N=9",0 n (%)
same,"Myalgia, All Grades","1B 120 mg, N=9",1 (11.1) n (%)
same,"Myalgia, Grade 3/4","1B 120 mg, N=9",0 n (%)
same,"Nausea, All Grades","1B 120 mg, N=9",7 (77.8) n (%)
same,"Nausea, Grade 3/4","1B 120 mg, N=9",1 (11.1) n (%)
same,"Neuralgia, All Grades","1B 120 mg, N=9",0 n (%)
same,"Neuralgia, Grade 3/4","1B 120 mg, N=9",0 n (%)
same,"Neutropenia, All Grades","1B 120 mg, N=9",2 (22.2) n (%)
same,"Neutropenia, Grade 3/4","1B 120 mg, N=9",2 (22.2) n (%)
same,"Neutrophil Count Decreased, All Grades","1B 120 mg, N=9",0 n (%)
same,"Neutrophil Count Decreased, Grade 3/4","1B 120 mg, N=9",0 n (%)
same,"Oedema, All Grades","1B 120 mg, N=9",0 n (%)
same,"Oedema, Grade 3/4","1B 120 mg, N=9",0 n (%)
same,"Oral Candidiasis, All Grades","1B 120 mg, N=9",0 n (%)
same,"Oral Candidiasis, Grade 3/4","1B 120 mg, N=9",0 n (%)
same,"Platelet Count Decreased, All Grades","1B 120 mg, N=9",3 (33.3) n (%)
same,"Platelet Count Decreased, Grade 3/4","1B 120 mg, N=9",0 n (%)
same,"Pruritus, All Grades","1B 120 mg, N=9",0 n (%)
same,"Pruritus, Grade 3/4","1B 120 mg, N=9",0 n (%)
same,"Thrombocytopenia, All Grades","1B 120 mg, N=9",1 (11.1) n (%)
same,"Thrombocytopenia, Grade 3/4","1B 120 mg, N=9",0 n (%)
same,"Total, All Grades","1B 120 mg, N=9",9 (100) n (%)
same,"Total, Grade 3/4","1B 120 mg, N=9",4 (44.4) n (%)
same,"Vomiting, All Grades","1B 120 mg, N=9",3 (33.3) n (%)
same,"Vomiting, Grade 3/4","1B 120 mg, N=9",0 n (%)
same,"Weight Decreased, All Grades","1B 120 mg, N=9",1 (11.1) n (%)
same,"Weight Decreased, Grade 3/4","1B 120 mg, N=9",0 n (%)
same,"White Blood Cell Count Decreased, All Grades","1B 120 mg, N=9",2 (22.2) n (%)
same,"White Blood Cell Count Decreased, Grade 3/4","1B 120 mg, N=9",0 n (%)
same,"Abdominal Pain, All Grades","1B 150 mg, N=8",2 (25.0) n (%)
same,"Abdominal Pain, Grade 3/4","1B 150 mg, N=8",0 n (%)
same,"Alanine Aminotransferase Increased, All Grades","1B 150 mg, N=8",1 (12.5) n (%)
same,"Alanine Aminotransferase Increased, Grade 3/4","1B 150 mg, N=8",0 n (%)
same,"Alopecia, All Grades","1B 150 mg, N=8",0 n (%)
same,"Alopecia, Grade 3/4","1B 150 mg, N=8",0 n (%)
same,"Amylase Increased, All Grades","1B 150 mg, N=8",0 n (%)
same,"Amylase Increased, Grade 3/4","1B 150 mg, N=8",0 n (%)
same,"Anaemia, All Grades","1B 150 mg, N=8",2 (25.0) n (%)
same,"Anaemia, Grade 3/4","1B 150 mg, N=8",0 n (%)
same,"Asthenia, All Grades","1B 150 mg, N=8",1 (12.5) n (%)
same,"Asthenia, Grade 3/4","1B 150 mg, N=8",0 n (%)
same,"Blood Bilirubin Increased, All Grades","1B 150 mg, N=8",1 (12.5) n (%)
same,"Blood Bilirubin Increased, Grade 3/4","1B 150 mg, N=8",0 n (%)
same,"Blood Creatine Phosphokinase Increased, All Grades","1B 150 mg, N=8",0 n (%)
same,"Blood Creatine Phosphokinase Increased, Grade 3/4","1B 150 mg, N=8",0 n (%)
same,"Blood Creatinine Increased, All Grades","1B 150 mg, N=8",1 (12.5) n (%)
same,"Blood Creatinine Increased, Grade 3/4","1B 150 mg, N=8",0 n (%)
same,"Decreased Appetite, All Grades","1B 150 mg, N=8",3 (37.5) n (%)
